The conditions of test [1]: cited from earlier work.
The conditions of test [2]: LPS model; cited from earlier work.
The conditions of test [3]: acid-induced acute lung injury; cited from earlier work.
The next test relates to Aβ biogenesis. To be noted: cited from earlier work.
The test system of test [4] is ceramide levels in F11 cells. In words: Immunocytochemistry for ceramide in treated F11 cells. Type of test: cell-based. On the procedure:
(§1) For immunocytochemistry, F11 cells were grown on coverslips. Cells were incubated with myriocin for 3 days to inhibit de novo ceramide biosynthesis and reduce ceramide levels. To determine whether the antibody would cross-react with glycosphingolipids in the membrane, cells were incubated for 4 days with […] N-butyl-deoxynojirimycin (NB-dNJ), a glucosylceramide (GlcCer) synthase inhibitor known to inhibit glycosphingolipid biosynthesis. Control and myriocin- or NB-dNJ-treated cells were fixed with 4% p-formaldehyde in PBS for 20 min at room temperature. To release endogenous ceramide from sphingomyelin, fixed cells were incubated for 1 hour at 37° C. with 0.3 units (1 U/ml) of Staphylococcus aureus sphingomyelinase. Immunocytochemistry for ceramide was performed without the use of detergent for permeabilization. […] Confocal fluorescence microscopy was performed using a Zeiss LSM510 confocal laser scanning microscope equipped with a two photon argon laser at 488 nm (Cy2), 543 inn (Cy3), or 633 nm (Alexa Fluor: 647). […] Cells were washed with PBS, and stained cells were analyzed by flow cytometry, measuring the fluorescence emission at 530 nm. […]

For test [5] the following is noted: repeated lung lavage; given together with surfactant; cited from earlier work.
Test [6] deals with TNF-α effect on endothelium-dependent vasorelaxation. Conditions: cited from earlier work.
The subject of test [7] is ceramide levels in F11 cells. As to the kind of experiment: Flow cytometry of F11 cells stained with anti-ceramide rabbit IgG. Type of test: cell-based. Conditions: F11 cells incubated with myriocin, stained with rabbit IgG fraction; FIG. 2. On the procedure: as §1
The test system of test [8] is ceramide levels in F11 cells. In words: Ceramide levels by high-performance thin-layer chromatography. It is filed as cell-based. To be noted: myriocin incubation of F11 cells for 3 days; HPTLC.

Where two headings read alike, the source gives them in different places.

Take `CCCCCCCCCCCCC/C=C/[C@@H](O)[C@H](CO)NC(C)=O` [C2-ceramide, N-acetyl sphingosine]: the ischaemic preconditioning-like protection result in [1] (cell-permeable C2-ceramide compared with TNF-α preconditioning) was “TNF-a protection is reproduced”.

Regarding `CCCCCCCC/C=C\CCCCCCCC(=O)NCCO` [N-oleoylethanolamine], in test [1] (ceramidase inhibitor), the “effect on preconditioning-like protection provided by TNF-a or C2-ceramide” value is reported as “hinders” and the “effect on protection induced by ischaemic preconditioning” value was “does not hinder”.

For `S=C(S)OC1CC2CC1C1CCCC21` (stereo not shown) [D609, tricyclodecan-9-yl-xanthate], in test [2], the mortality result was “attenuated” and the pulmonary edema formation result was “attenuated”. In [3], the oxygenation result is listed as “improves” and the pulmonary edema result is given as “attenuates”. Also, the “protection from ischaemia-induced cell death” value in [1] (administered before the ischaemic period) is on record as “reproduces preconditioning protection”.

For `CCCCCCCCCCCCC/C=C/[C@@H](O)[C@H](CO)NC(=O)CCCCC` [C6 ceramide, N-hexanoylsphingosine], in the test with Aβ biogenesis (FB1 treated cells), the Aβ generation entry was “restored”. For the same compound, the “biogenesis of Aβ” value in the test on Aβ biogenesis (exogenous C6 ceramide) is “promoted”.

Turning to `CCCCN1C[C@H](O)[C@@H](O)[C@H](O)[C@H]1CO` [NB-dNJ, N-butyl-deoxynojirimycin], the “intensity of the ceramide immunostaining signal” value in test [4] (F11 cells incubated for 4 days with 250 mM NB-dNJ) is “not changed significantly”.

As to `CN(C)CCCN1c2ccccc2CCc2ccccc21` [imipramine], the pulmonary inflammation result in test [2] was “attenuated”. Also, in [5], the “duration of the beneficial effect” value was 24 h, the edema formation entry is recorded as “ameliorates” and the oxygenation result is listed as “advances”.

Consider `CNCCCN1c2ccccc2CCc2ccccc21` [desipramine], for which the “effect on TNF-α inhibition of endothelium-dependent vasorelaxation” value in [6] is “neutralizes”.

As to `CCCCCCC(=O)CCCCCC/C=C/C[C@@H](O)[C@H](O)[C@@](N)(CO)C(=O)O` [myriocin], in [4] (F11 cells incubated with myriocin for 3 days, rabbit IgG and polyclonal IgM), the “intensity of the ceramide immunostaining signal” value is given as “reduced”. Moreover, the “reduction of fluorescence intensity compared with control cells” value in test [7] is listed as “about 40%”. The “reduction of ceramide levels” value in test [8] is listed as “about 50%”.

(Values after US20100278907A1, “Immunogenic Compositions Containing Ceramide and Methods of Use Thereof” (Medical College of Georgia Research Institute, Inc, priority 2008, published 2010).)
